Consider 3 substances from patent US4087417A, “Hexapeptides and methods for their production” (Parke, Davis & Company, priority 1976, dated 1978).

This test concerns LRF (luteinizing hormone release factor) induced luteinizing hormone (LH) release. As to the kind of experiment: In vitro LRF antagonist test in rat anterior pituitary cell cultures. It counts as cell-based. The text has this:
Hexapeptides of this invention were screened for LRF antagonist activity in vitro using rat anterior pituitary cell cultures as described by Vale et. al. [Endocrinology, 91, 562 (1972)]. The inhibition of LRF (luteinizing hormone release factor) induced luteinizing hormone (LH) release into the culture medium is the endpoint of this in vitro bioassay.

Where [1] appears, read: compound 1×10^-7 molar, run with LRF Control 3.5×10^-10 molar.
Setting [2] is: compound 2×10^-7 molar, run with LRF Control 3.5×10^-10 molar.
Setting [3] is: compound 3.5×10^-7 molar, run with LRF Control 3.5×10^-10 molar.
The mark [4] stands for this setting: compound 6×10^-7 molar, run with LRF Control 3.5×10^-10 molar.
The mark [5] stands for this setting: compound 6×10^-8 molar, run with LRF Control 3.5×10^-10 molar.
The mark [6] stands for this setting: compound 1×10^-6 molar, run with LRF Control 2.5×10^-10 molar.

Regarding “LRF Control: luteinizing hormone releasing factor, also referred to as luteinizing hormone releasing hormone, LH-RH; stimulates secretion of luteinizing hormone (QHWSYGLRPG; Gonadoliberin-1; UniProt P01148 24-33, looked up) [reference compound]”, the “LH Value” was 38.98 ng/mL (LRF alone 2.5×10^-10 molar (first run)) and 41.70 ng/mL (LRF alone 3.5×10^-10 molar (second run)).

For “N^α -t-Butoxycarbonyl-L-tryptophyl-N^im -benzyl-L-histidyl-O-benzyl-L-seryl-O-benzyl-L-tyrosyl-L-prolyl-D-alanine N-ethylamide”, the “% LH Release Inhibition” value turned out to be 49% under setting [1]; 93% under setting [2]; 104% under setting [3]; 106% under setting [4]; 11% under setting [5]. Further, the “LH Value” turned out to be 27.52 ng/mL under setting [1]; 14.63 ng/mL under setting [2]; 11.46 ng/mL under setting [3]; 10.90 ng/mL under setting [4]; 38.53 ng/mL under setting [5].

In the case of “N^α -t-Butoxycarbonyl-L-tryptophyl-N^im -benzyl-L-histidyl-O-benzyl-L-seryl-O-benzyl-L-tyrosyl-L-prolyl-D-alanine methyl ester”, under setting [6], the “% LH Release Inhibition” value came to 85% and the “LH Value” amounted to 11.04 ng/mL.
